This passage reports pEC50 results from the supplement of paper PMC6411743.

A value given as a limit tells only on which side of the number the result lay.
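Also: lysate dosed with Na-ATP at 0 0.005 0.05 0.5 and 2 mM.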

UniProt P06748, sequence (P06748 whole entry): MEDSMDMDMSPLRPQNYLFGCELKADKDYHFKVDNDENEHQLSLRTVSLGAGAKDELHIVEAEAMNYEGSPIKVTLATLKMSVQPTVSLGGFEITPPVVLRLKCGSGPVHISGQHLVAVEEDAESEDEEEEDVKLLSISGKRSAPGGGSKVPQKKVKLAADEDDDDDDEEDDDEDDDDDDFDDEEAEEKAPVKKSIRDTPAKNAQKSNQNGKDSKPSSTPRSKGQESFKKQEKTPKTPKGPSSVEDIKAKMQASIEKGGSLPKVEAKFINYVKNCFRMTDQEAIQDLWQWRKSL
UniProt A6NDG6, sequence (A6NDG6 whole entry): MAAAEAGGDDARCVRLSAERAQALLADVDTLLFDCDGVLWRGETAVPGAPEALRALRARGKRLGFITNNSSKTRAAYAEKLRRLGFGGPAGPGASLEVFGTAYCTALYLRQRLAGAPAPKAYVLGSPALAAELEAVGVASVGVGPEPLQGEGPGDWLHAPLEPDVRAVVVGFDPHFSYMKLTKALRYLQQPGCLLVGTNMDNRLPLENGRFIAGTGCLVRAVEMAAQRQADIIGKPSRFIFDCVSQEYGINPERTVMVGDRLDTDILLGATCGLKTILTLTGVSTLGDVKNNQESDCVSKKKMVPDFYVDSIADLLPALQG
UniProt Q15738, sequence (Q15738 whole entry): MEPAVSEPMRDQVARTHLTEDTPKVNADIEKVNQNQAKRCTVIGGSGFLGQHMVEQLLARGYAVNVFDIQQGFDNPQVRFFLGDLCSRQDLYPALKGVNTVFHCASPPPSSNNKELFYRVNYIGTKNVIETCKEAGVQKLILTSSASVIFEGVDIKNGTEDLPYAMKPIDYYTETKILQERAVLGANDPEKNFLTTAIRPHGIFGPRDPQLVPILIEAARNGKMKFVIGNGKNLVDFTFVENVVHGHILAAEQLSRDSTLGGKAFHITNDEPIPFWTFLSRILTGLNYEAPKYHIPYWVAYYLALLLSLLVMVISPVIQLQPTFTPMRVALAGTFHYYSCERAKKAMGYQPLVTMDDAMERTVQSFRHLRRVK
UniProt Q9HAN9, sequence (Q9HAN9 whole entry): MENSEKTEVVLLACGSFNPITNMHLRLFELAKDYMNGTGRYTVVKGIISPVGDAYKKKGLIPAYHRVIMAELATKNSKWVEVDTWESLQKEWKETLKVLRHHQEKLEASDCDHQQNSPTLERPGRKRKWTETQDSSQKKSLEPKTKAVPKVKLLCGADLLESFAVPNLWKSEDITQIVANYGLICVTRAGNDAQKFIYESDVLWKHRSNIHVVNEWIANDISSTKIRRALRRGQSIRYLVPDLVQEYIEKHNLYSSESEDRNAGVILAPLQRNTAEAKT
UniProt P48426, sequence (P48426 whole entry): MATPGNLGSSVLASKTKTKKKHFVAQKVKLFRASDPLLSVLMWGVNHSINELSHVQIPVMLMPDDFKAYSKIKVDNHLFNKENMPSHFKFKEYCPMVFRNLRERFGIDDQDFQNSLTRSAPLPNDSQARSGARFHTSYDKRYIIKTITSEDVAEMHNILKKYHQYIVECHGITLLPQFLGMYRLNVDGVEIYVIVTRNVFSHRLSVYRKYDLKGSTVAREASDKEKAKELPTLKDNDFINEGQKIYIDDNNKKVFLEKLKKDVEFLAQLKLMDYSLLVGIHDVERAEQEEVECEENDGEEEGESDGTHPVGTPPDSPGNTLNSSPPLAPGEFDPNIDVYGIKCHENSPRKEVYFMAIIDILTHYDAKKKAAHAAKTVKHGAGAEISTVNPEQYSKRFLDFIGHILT
UniProt P30414, sequence (P30414 whole entry): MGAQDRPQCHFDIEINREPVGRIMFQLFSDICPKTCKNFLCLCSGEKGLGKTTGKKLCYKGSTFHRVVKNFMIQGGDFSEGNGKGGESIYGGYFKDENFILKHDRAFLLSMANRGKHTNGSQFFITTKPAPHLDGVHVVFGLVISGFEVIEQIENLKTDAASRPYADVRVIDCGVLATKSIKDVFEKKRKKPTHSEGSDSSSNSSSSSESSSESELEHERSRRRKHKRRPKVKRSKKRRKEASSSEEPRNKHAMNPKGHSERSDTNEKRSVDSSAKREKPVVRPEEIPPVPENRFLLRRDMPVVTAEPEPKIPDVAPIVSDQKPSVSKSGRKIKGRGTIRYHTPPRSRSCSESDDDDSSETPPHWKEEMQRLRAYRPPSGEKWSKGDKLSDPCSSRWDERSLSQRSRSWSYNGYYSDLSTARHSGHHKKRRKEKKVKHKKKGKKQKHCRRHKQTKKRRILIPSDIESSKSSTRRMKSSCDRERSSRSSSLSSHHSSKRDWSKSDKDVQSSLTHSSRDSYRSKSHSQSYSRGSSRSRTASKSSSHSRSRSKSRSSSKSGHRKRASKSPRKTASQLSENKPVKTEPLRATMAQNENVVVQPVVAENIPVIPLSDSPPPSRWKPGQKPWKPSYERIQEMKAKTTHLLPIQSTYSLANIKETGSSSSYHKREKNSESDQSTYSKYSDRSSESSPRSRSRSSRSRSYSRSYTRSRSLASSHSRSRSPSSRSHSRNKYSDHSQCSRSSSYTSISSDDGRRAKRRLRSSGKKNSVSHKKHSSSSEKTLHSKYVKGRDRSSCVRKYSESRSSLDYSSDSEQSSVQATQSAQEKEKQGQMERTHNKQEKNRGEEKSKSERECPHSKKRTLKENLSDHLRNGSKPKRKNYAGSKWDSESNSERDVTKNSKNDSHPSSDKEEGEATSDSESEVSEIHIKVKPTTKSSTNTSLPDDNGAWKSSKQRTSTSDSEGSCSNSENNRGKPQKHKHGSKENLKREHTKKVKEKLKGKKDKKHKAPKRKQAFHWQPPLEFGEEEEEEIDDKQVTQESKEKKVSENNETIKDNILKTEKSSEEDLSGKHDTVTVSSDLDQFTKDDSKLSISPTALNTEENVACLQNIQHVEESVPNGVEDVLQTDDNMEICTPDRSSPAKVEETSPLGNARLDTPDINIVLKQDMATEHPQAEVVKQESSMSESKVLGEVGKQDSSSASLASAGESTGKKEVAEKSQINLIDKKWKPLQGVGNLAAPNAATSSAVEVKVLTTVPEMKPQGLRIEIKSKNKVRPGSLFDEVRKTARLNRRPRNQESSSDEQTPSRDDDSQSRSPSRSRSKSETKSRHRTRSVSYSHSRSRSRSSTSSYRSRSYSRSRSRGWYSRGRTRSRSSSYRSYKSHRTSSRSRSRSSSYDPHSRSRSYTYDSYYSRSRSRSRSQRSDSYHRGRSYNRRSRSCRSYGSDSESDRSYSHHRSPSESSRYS
UniProt P11498, sequence (P11498 whole entry): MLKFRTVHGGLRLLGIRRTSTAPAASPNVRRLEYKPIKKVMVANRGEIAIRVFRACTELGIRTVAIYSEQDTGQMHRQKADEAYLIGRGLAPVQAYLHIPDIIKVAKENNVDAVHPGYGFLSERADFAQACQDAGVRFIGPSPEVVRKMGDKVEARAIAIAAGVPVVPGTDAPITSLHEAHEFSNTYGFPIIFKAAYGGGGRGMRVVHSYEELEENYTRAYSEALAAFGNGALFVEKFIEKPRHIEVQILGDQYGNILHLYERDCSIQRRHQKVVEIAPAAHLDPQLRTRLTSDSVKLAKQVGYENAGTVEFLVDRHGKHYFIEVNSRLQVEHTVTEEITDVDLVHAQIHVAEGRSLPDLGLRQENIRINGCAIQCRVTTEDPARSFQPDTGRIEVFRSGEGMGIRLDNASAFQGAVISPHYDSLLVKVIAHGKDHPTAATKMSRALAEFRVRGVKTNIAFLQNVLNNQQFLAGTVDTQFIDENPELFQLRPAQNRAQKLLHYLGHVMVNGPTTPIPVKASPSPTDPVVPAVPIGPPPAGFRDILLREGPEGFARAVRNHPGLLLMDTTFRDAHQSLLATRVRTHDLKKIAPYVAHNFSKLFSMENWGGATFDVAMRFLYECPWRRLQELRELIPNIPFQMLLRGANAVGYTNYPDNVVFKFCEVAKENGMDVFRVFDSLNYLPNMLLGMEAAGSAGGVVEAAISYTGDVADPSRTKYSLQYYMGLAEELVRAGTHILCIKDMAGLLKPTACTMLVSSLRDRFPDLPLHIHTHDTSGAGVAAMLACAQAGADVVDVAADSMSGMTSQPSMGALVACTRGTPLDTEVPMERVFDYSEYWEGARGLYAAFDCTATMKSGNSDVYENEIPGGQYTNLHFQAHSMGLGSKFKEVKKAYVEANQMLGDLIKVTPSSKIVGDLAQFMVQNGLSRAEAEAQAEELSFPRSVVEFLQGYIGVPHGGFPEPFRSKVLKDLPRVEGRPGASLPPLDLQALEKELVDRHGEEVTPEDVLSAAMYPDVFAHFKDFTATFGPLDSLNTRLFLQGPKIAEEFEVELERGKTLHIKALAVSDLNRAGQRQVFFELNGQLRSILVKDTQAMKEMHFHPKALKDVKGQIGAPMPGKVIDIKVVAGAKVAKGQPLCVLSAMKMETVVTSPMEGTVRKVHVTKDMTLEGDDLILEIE
UniProt P35080, sequence (P35080 whole entry): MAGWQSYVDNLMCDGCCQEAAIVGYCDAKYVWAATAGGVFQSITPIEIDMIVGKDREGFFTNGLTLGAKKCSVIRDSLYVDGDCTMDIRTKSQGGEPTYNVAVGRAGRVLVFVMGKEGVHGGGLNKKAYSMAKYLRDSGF
UniProt O14737, sequence (O14737 whole entry): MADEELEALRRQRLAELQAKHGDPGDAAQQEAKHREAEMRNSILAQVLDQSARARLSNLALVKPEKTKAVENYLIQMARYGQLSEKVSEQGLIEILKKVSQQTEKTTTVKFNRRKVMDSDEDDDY
UniProt Q9BRX2, sequence (Q9BRX2 whole entry): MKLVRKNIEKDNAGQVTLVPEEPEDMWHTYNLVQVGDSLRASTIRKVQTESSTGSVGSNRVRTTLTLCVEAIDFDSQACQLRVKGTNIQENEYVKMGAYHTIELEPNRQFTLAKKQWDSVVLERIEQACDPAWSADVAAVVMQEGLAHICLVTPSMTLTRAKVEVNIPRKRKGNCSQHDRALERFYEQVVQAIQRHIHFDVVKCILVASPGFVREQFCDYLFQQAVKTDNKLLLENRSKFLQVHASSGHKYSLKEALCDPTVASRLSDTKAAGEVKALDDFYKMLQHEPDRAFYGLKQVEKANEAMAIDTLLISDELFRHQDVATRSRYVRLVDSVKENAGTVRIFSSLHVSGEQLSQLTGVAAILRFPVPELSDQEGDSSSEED

Compound in this test: Nc1ncnc2c1ncn2[C@@H]1O[C@H](COP(=O)(O)OP(=O)(O)OP(=O)(O)O)[C@@H](O)[C@H]1O [adenosine triphosphate]
The experiment in a line: pEC50 of ATP-induced change in protein thermal stability (2D-TPP). The essentials:
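Soluble protein was quantified by TMT LC-MS/MS after ultracentrifugation of Jurkat crude lysate that had been dosed at five concentrations including vehicle (10 min, room temperature), heated at 12 temperatures of 42–63.9 °C for 3 min, and incubated with NP40 and benzonase at 4 °C for 60 min. Fold changes against vehicle at each temperature were median-normalised, and pEC50 was derived from per-replicate dose-response fits over adjacent temperature pairs. Hits were called with permutation-based false discovery rate control in three independent experiments.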
As for “NAPA (effect direction: destabilized) (UniProt P54920)”, the pEC50 stood at 4.56. Take “NARS2 (effect direction: stabilized) (UniProt Q96I59)”: the negative logarithm of the EC50 (pEC50) worked out at 4.1. Consider “NAT14 (effect direction: stabilized) (UniProt Q8WUY8)”, for which the negative logarithm of the EC50 (pEC50) turned out to be 3.34.

As for “NCAPD2 (effect direction: stabilized) (UniProt Q15021)”, the pEC50 was determined as 3.56. The result for “NCAPG (effect direction: stabilized) (UniProt Q9BPX3)” reads 3.93. Regarding “NCAPH (effect direction: stabilized) (UniProt Q15003)”, the pEC50 is 3.5. As for “NCL (effect direction: stabilized) (UniProt P19338)”, the pEC50 is below 2.7. For “NEDD8 (effect direction: destabilized) (UniProt Q15843)”, the pEC50 is 3.02. The result for “NEK9 (effect direction: stabilized) (UniProt Q8TD19)” reads 3.19; that for “NFATC2 (effect direction: stabilized) (UniProt Q13469)”, 3.21; that for “NFKB1 (effect direction: stabilized) (UniProt P19838)”, 3.66. With “NIPSNAP1 (effect direction: stabilized) (UniProt Q9BPW8)”, the pEC50 came to 3.75. For the target “NKTR (effect direction: stabilized) (UniProt P30414)”, the pEC50 was found to be 3.22. The result for “NMNAT1 (effect direction: stabilized) (UniProt Q9HAN9)” reads 3.08; that for “NMT1 (effect direction: stabilized) (UniProt P30419)”, 3.06; that for “NOP2 (effect direction: destabilized) (UniProt P46087)”, 2.94.

Turning to “NPM1 (effect direction: stabilized) (UniProt P06748)”, the pEC50 was found to be 2.88. Regarding “NPM3 (effect direction: stabilized) (UniProt O75607)”, the pEC50 is below 2.7.

As for “NRF1 (effect direction: stabilized) (UniProt Q16656)”, the pEC50 is 2.97.

As to “NSDHL (effect direction: stabilized) (UniProt Q15738)”, the pEC50 is below 2.7. In the case of “NT5C2 (effect direction: stabilized) (UniProt P49902)”, the pEC50 was 2.82. The result for “NT5DC2 (effect direction: stabilized) (UniProt Q9H857)” reads below 2.7; that for “NUBP1 (effect direction: stabilized) (UniProt P53384)”, 3.44. On to “NUDC (effect direction: stabilized) (UniProt Q9Y266)”, for which the pEC50 was below 2.7. The result for “NUDT2 (effect direction: stabilized) (UniProt P50583)” reads 3.31. “NUMB (effect direction: stabilized) (UniProt P49757)”: the pEC50 is 3.45. As for “NUP85 (effect direction: stabilized) (UniProt Q9BW27)”, the pEC50 is below 2.7. The result for “NUP133 (effect direction: stabilized) (UniProt Q8WUM0)” reads 2.84; that for “NUP188 (effect direction: stabilized) (UniProt Q5SRE5)”, below 2.7. As to “NUP210 (effect direction: stabilized) (UniProt Q8TEM1)”, the pEC50 is below 2.7. Take “OGDH (effect direction: stabilized) (UniProt Q02218)”: the pEC50 was 3.3.

Consider “OPA1 (effect direction: destabilized) (UniProt O60313)”, for which the pEC50 was determined as 3.09. The result for “ORC6 (effect direction: stabilized) (UniProt Q9Y5N6)” reads 3.73; that for “OSBPL8 (effect direction: stabilized) (UniProt Q9BZF1)”, 3.4; that for “OXA1L (effect direction: stabilized) (UniProt Q15070)”, below 2.7. Under “PA2G4 (effect direction: destabilized) (UniProt Q9UQ80)” stands 3.17; under “PABPN1 (effect direction: destabilized) (UniProt Q86U42)”, 3.23; under “PACSIN2 (effect direction: stabilized) (UniProt Q9UNF0)”, below 2.7. On to “PAF1 (effect direction: stabilized) (UniProt Q8N7H5)”, for which the pEC50 stood at 3.1. Under “PANK2 (effect direction: stabilized) (UniProt Q9BZ23)” stands 3.02; under “PAPOLA (effect direction: stabilized) (UniProt P51003)”, 2.95. The result for “PAPSS1 (effect direction: stabilized) (UniProt O43252)” reads 3.65; that for “PARN (effect direction: stabilized) (UniProt O95453)”, below 2.7.

Consider “PATL1 (effect direction: stabilized) (UniProt Q86TB9)”, for which the pEC50 is 2.83.

With “PC (effect direction: stabilized) (UniProt P11498)”, the negative logarithm of the EC50 (pEC50) came out at 3.45. In the case of “PCID2 (effect direction: stabilized) (UniProt Q5JVF3)”, the pEC50 came to 3.02. Regarding “PCNA (effect direction: stabilized) (UniProt P12004)”, the pEC50 is below 2.7. Regarding “PCYT2 (effect direction: stabilized) (UniProt Q99447)”, the negative logarithm of the EC50 (pEC50) was below 2.7.

As to “PDCD2 (effect direction: stabilized) (UniProt Q16342)”, the pEC50 came out at 3.06. “PDCD5 (effect direction: destabilized) (UniProt O14737)”: the pEC50 is 3.52.

On to “PDCD6 (effect direction: destabilized) (UniProt O75340)”, for which the pEC50 was below 2.7. Consider “PDCD10 (effect direction: stabilized) (UniProt Q9BUL8)”, for which the pEC50 amounted to 3.17.

Regarding “PDCL3 (effect direction: destabilized) (UniProt Q9H2J4)”, the negative-log EC50 (pEC50) turned out to be 4.16.

As to “PDK3 (effect direction: stabilized) (UniProt Q15120)”, the pEC50 amounted to 2.84. For “PEF1 (effect direction: destabilized) (UniProt Q9UBV8)”, the pEC50 is 2.86. Regarding “PELO (effect direction: stabilized) (UniProt Q9BRX2)”, the pEC50 stood at 3.17. For “PEPD (effect direction: destabilized) (UniProt P12955)”, the pEC50 is below 2.7. On to “PES1 (effect direction: destabilized) (UniProt O00541)”, for which the pEC50 worked out at 3.49.

Take “PEX6 (effect direction: stabilized) (UniProt Q13608)”: the pEC50 came to 4.03. For “PFN1 (effect direction: stabilized) (UniProt P07737)”, the pEC50 was 3.57. The result for “PFN2 (effect direction: stabilized) (UniProt P35080)” reads 3.51; that for “PGAM1 (effect direction: destabilized) (UniProt P18669)”, below 2.7; that for “PGD (effect direction: stabilized) (UniProt P52209)”, below 2.7. As for “PGGT1B (effect direction: stabilized) (UniProt P53609)”, the pEC50 worked out at 3.47. On to “PGK1 (effect direction: stabilized) (UniProt P00558)”, for which the pEC50 is 3.75. Consider “PGM1 (effect direction: destabilized) (UniProt P36871)”, for which the pEC50 was below 2.7. Turning to “PGP (effect direction: destabilized) (UniProt A6NDG6)”, the pEC50 is below 2.7. In the case of “PHACTR4 (effect direction: stabilized) (UniProt Q8IZ21)”, the pEC50 came to 4.03. For the target “PHGDH (effect direction: stabilized) (UniProt O43175)”, the pEC50 was below 2.7. “PHKA1 (effect direction: stabilized) (UniProt P46020)”: the pEC50 amounted to 2.87. As for “PHKG2 (effect direction: stabilized) (UniProt P15735)”, the pEC50 worked out at 2.96. Regarding “PI4K2A (effect direction: stabilized) (UniProt Q9BTU6)”, the pEC50 is 3.54. Under “PIP4K2A (effect direction: stabilized) (UniProt P48426)” stands 2.72; under “PITRM1 (effect direction: stabilized) (UniProt Q5JRX3)”, 3.09; under “PLCG1 (effect direction: stabilized) (UniProt P19174)”, 2.94.

Regarding “PLEKHA1 (effect direction: stabilized) (UniProt Q9HB21)”, the pEC50 is 3.32. On to “PLEKHF2 (effect direction: stabilized) (UniProt Q9H8W4)”, for which the pEC50 was found to be 3.17. For the target “PLK1 (effect direction: stabilized) (UniProt P53350)”, the pEC50 stood at 3.69. Turning to “PLS1 (effect direction: stabilized) (UniProt Q14651)”, the pEC50 is below 2.7. With “PM20D2 (effect direction: stabilized) (UniProt Q8IYS1)”, the pEC50 is 2.86. For “PMS2 (effect direction: stabilized) (UniProt P54278)”, the pEC50 worked out at 3.21.

As usually defined, the pEC50 is the EC50 on a negative log10 scale, so that one unit is a factor of ten.
